From patent publication US5646132A, “2(1H)-quinolone compounds” (Adir et Compagnie, priority 1993, dated 1997)
pIC50, pKi: −log10 of the molar value.

Tests used:
[1] = molecular target: AMPA receptor; assay: Membrane binding, [3H]-AMPA, rat cortex homogenate; settings: rat cortex membranes
Protocol: This is carried out using a rat cortex homogenate. The membrane pellet is prepared in a conventional manner in a sucrose buffer by differential centrifugations, and then frozen until used. After thawing, […] of membrane homogenate are taken up in a Tris-HCl (30 mM), CaCl2 (2.5 mM) buffer, pH 7.4, and incubated at 4° C. for 30 minutes in the presence of 25 μl of [^3 H]-AMPA or [^3 H]-kainate and 25 μl of the test product. Non-specific binding is determined in the presence of 10 μM quisqualate (AMPA binding) or 10 μM kainic acid (kainate binding). The membranes are then isolated by filtration. After drying of the filters, the radioactivity is measured by scintillation.

[2] = system: audiogenic (glutamate-dependent) convulsions in DBA/2 mice; assay: Audiogenic convulsions test in DBA/2 mice; assay type: in vivo, mouse (DBA/2); settings: for activity by the oral route, audiogenic convulsions: oral administration
From the text: (§1) Furthermore, the compounds of the invention have an in vivo activity which is unique and exceptional for the products of this class. In fact, in the audiogenic convulsions test in DBA/2 mice carried out according to the methodology described by CROUCHER et al.

[3] = system: Kainate current (glutamate receptors; AMPA/kainate receptors); assay: Currents induced by kainate in Xenopus oocytes expressing the glutamate receptors; assay type: cell-based, rat; settings: kainate 100 μM, read-out: IC50, inhibition of kainate current
Protocol: 2/ Currents induced by EAA in Xenopus oocytes
Xenopus oocytes are injected with 50 ng of poly(A)^+ mRNA isolated from rat cerebral cortex, and incubated for 2 to 3 days at 18° C. to permit protein expression therein. The inward currents induced by EAA are measured in a medium of composition: NaCl (82.5 mM), KCl (2.5 mM), CaCl2 (1 mM), MgCl2 (1 mM), NaH2 PO4 (1 mM), HEPES (5 mM), pH 7.4, by the 2-electrode voltage-clamp method (potential=-60 mV). For measurement of the currents induced by NMDA and glycine, MgCl2 is absent from the medium and CaCl2 is brought to a concentration of 2 mM. The EAA agonists that induce the currents are used at the following concentrations: kainate: 100 μm; AMPA: 30 μM; glycine/NMDA: 3/30 μM. The test product is applied 30 seconds before and during the application of the agonist.

[4] = system: neurotoxic excitatory currents in the hippocampus; assay: Neurotoxic excitatory currents induced in the hippocampus by stimulation of the glutamatergic pathways (Schaeffer's collaterals); settings: read-out: IC50 with respect to neurotoxic excitatory currents induced in the hippocampus
Protocol: This inhibition is strong and constant since the same IC50 (2 μM) is found with respect to neurotoxic excitatory currents induced in the hippocampus by stimulation of the glutamatergic pathways (Schaeffer's collaterals).

[5] = Audiogenic convulsions test in DBA/2 mice; assay type: in vivo, mouse (DBA/2); settings: mouse, in vivo, IP vs PO
From the text: as §1

[6] = system: hippocampal pyramidal neurons (CA1); assay: Transient global cerebral ischemia in Gerbil; assay type: in vivo
Protocol: 1) Transient global cerebral ischemia in Gerbil
Transient and complete arrest of cerebral blood flow which is observed in clinical situation during a cardiac infarct, gives rise to a delayed death of specific vulnerable neurons, especially in hippocampus, a crucial cerebral region for cognitive functions. This phenomenon can be experimentally reproduced after transient occlusion of common carotid arteries.
In Gerbil, a transient occlusion (5 minutes) of carotid arteries gives rise to a total loss of hippocampal pyramidal neurons (CA1). This death can be observed only 3 or 4 days after ischemia. Numerous studies have shown that it could be due essentially to an excessive release of glutamate during the post-ischemic reperfusion.
NBQX (30 mg/kg IP) protects 50% of neurons in case of treatment 30 minutes before then b.i.d. after ischemia until histological measurement 4 days later.

[7] = system: cortical infarct; assay: Permanent focal ischemia in mice (MCA occlusion); assay type: in vivo
Protocol: 2) Permanent focal ischemia in mice
This ischemia can be perfectly reproduced in mice by electrocoagulation of MCA, giving rise to a well delimited cortical infarct 24 hours later. This infarct can be easily measured by histological examination.

[8] = 30 mg/kg IP, 30 minutes before then b.i.d. after ischemia, histology 4 days later
[9] = 30 mg/kg IP before then 3 hours after ischemia, significant decrease
[10] = 30 mg/kg, curative only (5 minutes, 1 hour and 2 hours after MCA occlusion)

SMILES | pKi [1] | activity by the oral route, audiogenic convulsions [2] | pIC50 [3] | pIC50 [4] | bioavailability index (ID50 IP/ID50 PO) [5] | ED50 ([2]; Mus musculus, IP administration, read-out: ID50, audiogenic convulsions) [mg/kg] | protection of hippocampal neurons ([6]; 10 mg/kg IP, same conditions) [%] | protection from neuronal death (in words) [6, 8] | change of infarct volume [7, 9] [%] | change of infarct volume [7, 10] [%] | protection of neurons [6, 8] [%] | effect on infarct volume (in words) [7, 10]
N#Cc1cc2[nH]c(=O)c(=O)[nH]c2cc1[N+](=O)[O-] [CNQX, 6-cyano-7-nitro-2,3-quinoxalinedione, reference compound] | 7.15 | do not have any activity by the oral route | – | – | – | – | – | – | – | – | – | –
O=c1[nH]c2cc(Cl)c(Cl)cc2cc1P(=O)(O)O [Example 2, 6,7-Dichloro-2(1H)-quinolone-3-phosphonic acid] | 6.05 | also after oral administration | 5.70 | 5.70 | ~0.3 | 18.7 | 50 | protects completely from neuronal death | -26 | -23 | – | –
NS(=O)(=O)c1cccc2c1c([N+](=O)[O-])cc1[nH]c(=O)c(=O)[nH]c12 [NBQX, 6-nitro-7-sulfamoylbenzo[f]quinoxaline-2,3-dione, reference compound] | – | do not have any activity by the oral route | – | – | – | – | – | – | -26 | – | 50 | remains ineffective
